Assay results: patent US10231985B2, “Compounds and compositions comprising such compounds for the prevention or treatment of dyslipidaemias” (CENTRE NATIONAL DE LA RECHERCHE SCIENTIFIQUE, priority 2013, dated 2019)

Experiments:
[1] = tested on: MIN6 pancreatic β-cells; test: Monitoring of insulin maturation (Western blot, anti-insulin); type: cell-based, mouse; conditions: MIN6, 400 μM palmitic acid 48 hours, 200 μM compound during final 24 hours
Description: Pancreatic β-cells, MIN6, were grown under control conditions (0) or, alternatively, in the presence of an exogenous source of 400 μM palmitic acid (P), for 48 hours, as described by Boslem et al. (2011), in order to generate lipointoxication conditions. During the final 24 hours of growth, 200 μM OAG, LPA or mannide monooleate was added or not as mentioned.
In the manner of that described above for the lipointoxication of BRIN-BD11 cells, the MIN6 cell line is grown in complete DMEM-High Glucose medium […], supplemented with 10% (v/v) fetal calf serum (FCS), 15 mM HEPES, 100 U/ml penicillin and 100 μg/ml streptomycin, and lipointoxication is induced by exposure to 400 μM palmitic acid, coupled to BSA (0.92% (w/v) final), for 48 hours, with or without the addition of the compound of interest (see Boslem et al., 2011). The cells are then collected and a Western blot is carried out as indicated above, using anti-insulin antibodies in order to follow the maturation of proinsulin to insulin.

[2] = tested on: QM strain (cells not synthesizing triglycerides); test: Toxicity test on QM strain (growth inhibition halos); type: cell-based, Saccharomyces cerevisiae; conditions: 5 μl drops on agar, after three days
Description: Drops (5 μl) of OAG, LPA or oleic acid were deposited, from stock solutions at the indicated concentrations, on the surface of an agar medium over which the QM strain had been spread beforehand. […] These halos are, however, not observed in the presence of LPA or of OAG.
In parallel, wild-type (WT) and quadruple mutant (QM) strains are grown, under aerobic conditions, with shaking and at 28° C., in liquid YPG medium before seeding 3500 cells per cm^2 of YPG+2% agar (w/v). Following this transfer to solid medium, 1 μl drops of 1, 10 and 100 mM solutions of the various compounds in DMSO or EtOH are deposited on the agar surface. Separately, DMSO and EtOH are also deposited in order to evaluate the intrinsic toxicity of these two solvents. After 3 days of culture at 28° C., the toxicity of the compounds tested is evaluated by comparing the growth inhibition halo diameters obtained for the depositions of pure solvent with those of the depositions of the various concentrations of the compounds tested. Unlike the WT strain, the QM strain is incapable of buffering excess exogenous oleic acid in the form of neutral lipids (triglycerides (TG) or esterified sterols (ES)) in lipid droplets.

[3] = tested on: unfolded protein response (UPR); test: Test of UPR triggering (4xUPRE-lacZ, β-galactosidase activity) in hem1Δ yeast; type: cell-based, Saccharomyces cerevisiae; conditions: 200 μM, liquid medium inducing SFA accumulation
From the text: A plasmid construction bearing a fusion gene, corresponding to the coding sequence of the lacZ gene placed under the control of an artificial promoter containing four UPR elements (UPRE), was introduced into a hem1Δ yeast strain, as described by Pineau et al. (2009). During UPR induction, the transcription factor Hac1p/XBP1p is activated and binds to the fusion gene UPRE, leading to the transcription of the lacZ gene. As lacZ encodes β-galactosidase, the level of UPR induction is thus measured by detecting the corresponding enzyme activity. The hem1Δ yeast strain was grown in liquid medium inducing SFA accumulation with no other addition (0), or in the same medium supplemented with 200 μM oleic acid, OAG or LPA, as indicated.
The hem1Δ strain transformed by the plasmid pPW344 [2μ URA3 4×UPRE-lacZ (Patil et al., 2004)] is grown in liquid medium (YPG^A, YPG, or YPG+200 μM compound to be tested), under aerobic conditions, with shaking at 28° C. for 7 hours, from an initial cell concentration of 2×10^6 cells/ml. At the conclusion of the culture, 10^8 cells are collected in order to quantify the β-galactosidase (β-gal) activity resulting from the expression of the lacZ transgene (in the case of UPR activation). […] For each sample, β-gal activity (U) is calculated using the formula U=(1000×[OD420 nm−(1.75×OD550 nm)])/(t×V×OD600 nm), expressed in arbitrary units.

| Structure (SMILES) | Maturation of proinsulin to insulin [1] | Growth inhibition halos on QM strain [2] | UPR induction level (β-galactosidase activity) [3] |
| --- | --- | --- | --- |
| CCCCCCCC/C=C\CCCCCCCC(=O)OC[C@H](CO)OC(C)=O [OAG, 1-oleoyl-2-acetyl-sn-glycerol] | only mannide monooleate restores | not observed | reduce the unfolded protein response (UPR) |
| CCCCCCCC/C=C\CCCCCCCC(=O)OC[C@@H](O)COP(=O)(O)O [LPA, 1-oleoyl-sn-glycerol-3-phosphate] | only mannide monooleate restores | not observed | reduce the unfolded protein response (UPR) |
